Measured values from patent US11099176B2 (priority 2015, dated 2021).
Read-outs that look alike come from different tables or passages of the source.

How the values were obtained:
[1] = biological target: T1, Thermanaerovibrio acidaminovorans taLacBP14 variant W186C, SEQ ID NO: 48, Badan conjugate (Thermanaerovibrio acidaminovorans, UniProt D1B6P5, C271A/C333A/W212C); format: binding; design: key: nb: no binding; conditions: λ1 515, λ2 491 nm
T1 construct: Badan on Cys186
Procedure: (§1) 12-, 24-, or 48-point logarithmic titration series were prepared on a Tecan Freedom liquid-handling robot, using an in-house program, ‘TitrationPlate’, that compiles an abstract description of a multi-component titration series into machine instructions for operating the robot. Temperature-dependent fluorescence emission intensities of 20 μL aliquots, each containing 10 μM protein, were measured in 384-well microtiter plates in a LightCycler 480 II (Roche) using excitation and emission wavelengths available for this instrument that most closely matched the optical characteristics of the fluorescent conjugate. Temperatures were advanced in 1K steps. At each temperature, data was collected at 1-second intervals for 60 seconds at which point the signal had relaxed to a steady value associated with the new temperature. […] The in-house program ‘TitrationMeltPlate’ was used to convert these observations into time-independent datasets that record fluorescence as a function of temperature for each well and associate wells with their concentration of titrant and additive. Management tools were developed to maintain a database of titrations and their analyses.
(§2) Ligand- and wavelength-dependent emission intensities were recorded on a Nanodrop3300 (Thermo Scientific) at room temperature. Using the LED closest to the optimal excitation wavelength of the fluorophore (UV, 365 nm; blue, 470 nm; ‘white’, 460-550 nm).
(§3) Monochromatic emission intensities Iλ (these intensities correspond to a bandpass intensity, recorded either with a physical filter in the case of the Roche LightCycler, or by integrating in the interval λ−δ, λ+δ in the case of an emission spectrum), were fit to Iλ=^apoβλ(1−ytrue)+^satβλytrue 1 where ^apoβλ and ^satβλ are the fluorescence baselines associated with the ligand-free and ligand-bound states of the protein, respectively, and ytrue the fractional saturation of the protein (Layton and Hellinga, 2010, Biochemistry, 49, 10831-41). Baseline functions can be constant, linear, or a second-order polynomial.

[2] = biological target: T2, Rhodobacter sphaeroides rsLacBP12 variant F191C, SEQ ID NO: 46, Badan conjugate (Cereibacter sphaeroides, UniProt Q3IWV8, F228C); format: binding; design: key: nb: no binding
T2 construct: Badan on Cys191
T2 sequence (Q3IWV8 entry or part of it F228C): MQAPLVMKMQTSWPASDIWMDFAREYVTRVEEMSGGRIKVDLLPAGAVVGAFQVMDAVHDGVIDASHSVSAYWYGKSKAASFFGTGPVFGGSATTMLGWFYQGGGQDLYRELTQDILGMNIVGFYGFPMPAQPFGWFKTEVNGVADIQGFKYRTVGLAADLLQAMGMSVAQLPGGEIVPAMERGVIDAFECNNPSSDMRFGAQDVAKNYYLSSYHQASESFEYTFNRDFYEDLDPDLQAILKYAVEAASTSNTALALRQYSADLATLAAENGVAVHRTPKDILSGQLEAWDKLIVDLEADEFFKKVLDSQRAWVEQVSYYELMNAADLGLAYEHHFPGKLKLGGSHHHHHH
Procedure: as §1, §2, §3

[3] = biological target: Marinobacter sp. msLacBP6 variant 187C, D220E, SEQ ID NO: 56, Badan conjugate; test: Fluorescence titration of conjugate (affinity tuning); format: binding; conditions: read-out: trueKd (lactate); monochromatic, 532 nm
[4] = biological target: Marinobacter sp. msLacBP6 variant V192C, SEQ ID NO: 40, Acrylodan conjugate; test: Fluorescence titration of conjugate; format: binding; conditions: read-out: trueKd (lactate); monochromatic, 500 nm
[5] = biological target: Marinobacter sp. msLacBP6 variant 187C, 70M, SEQ ID NO: 53, Acrylodan conjugate, immobilized on Ni-NTA beads; test: Lactate titration of immobilized conjugate on magnetic Ni-NTA beads; conditions: read-out: trueKd (lactate), λ1 452, λ2 525 nm
[6] = biological target: Marinobacter sp. msLacBP6 variant Y187C, C-terminal βZif fusion, SEQ ID NO: 61, Acrylodan and βZif 5IAF (Fluorescein) conjugate; test: Fluorescence titration of doubly labeled conjugate (ngmFRET); format: binding
Source text: (§4) We tested whether non-geometrically modulated fluorescence energy transfer (ngmFRET) effects in doubly labeled proteins could improve ratiometric signaling. To this end, we fused a small, disulfide-containing domain, βZif (Smith et al., 2005, Protein Sci, 14, 64-73) to the C-terminus of msLacBP6 187C (Table 5). This arrangement enables independent, site-specific labeling with two different, thiol-reactive fluorophores by first reacting at the unprotected thiol in the msLacBP6, followed by a reduction of the […] disulfide to deprotect and label this second site with a second fluorophore. […] Indirectly responsive partners are selected according to their excitation and emission characteristics such that energy transfer is established between the two fluorophores. […] Mechanisms for non-geometrically modulated FRET (ngmFRET) effects are detailed in Materials and Methods and PCT International Patent Application No. PCT/US 16/62958, filed Nov. 19, 2016, the entire content of which is incorporated herein by reference.
(§5) In the Badan conjugates, the ngmFRET coupling was so strong that all the donor excited state energy was transferred to the acceptor, and the signal was converted from a dichromatic to a monochromatic response. In the Acrylodan conjugates, an improvement in the dichromatic signal was observed (FIG. 7).
(§6) Temperatures were advanced in 1K steps. […] Under these experimental photobleaching was not observed.

[7] = biological target: Marinobacter sp. msLacBP6 variant Y187C, C-terminal βZif fusion, SEQ ID NO: 61, Acrylodan and βZif Alexa532 conjugate; test: as above; format: binding
Source text: as §4, §5, §6

[8] = biological target: Marinobacter sp. msLacBP6 variant 187C, F68L, SEQ ID NO: 49, Badan conjugate; test: Fluorescence titration of conjugate (affinity tuning); format: binding; conditions: λ1 463, λ2 535 nm
[9] = biological target: Marinobacter sp. msLacBP6 variant V188C, SEQ ID NO: 39, Badan conjugate; test: Fluorescence titration of conjugate; format: binding; conditions: read-out: trueKd (lactate); monochromatic, 513 nm
[10] = biological target: T3, Marinobacter adhaerens maLacBP8 variant F189C, SEQ ID NO: 43, Acrylodan conjugate (Marinobacter adhaerens, UniProt E4PNW2, C105A/C90A/F252C); test: Fluorescence titration of conjugate; format: binding
T3 construct: Acrylodan on Cys189
T3 sequence (E4PNW2 entry or part of it C90A/C105A/F252C): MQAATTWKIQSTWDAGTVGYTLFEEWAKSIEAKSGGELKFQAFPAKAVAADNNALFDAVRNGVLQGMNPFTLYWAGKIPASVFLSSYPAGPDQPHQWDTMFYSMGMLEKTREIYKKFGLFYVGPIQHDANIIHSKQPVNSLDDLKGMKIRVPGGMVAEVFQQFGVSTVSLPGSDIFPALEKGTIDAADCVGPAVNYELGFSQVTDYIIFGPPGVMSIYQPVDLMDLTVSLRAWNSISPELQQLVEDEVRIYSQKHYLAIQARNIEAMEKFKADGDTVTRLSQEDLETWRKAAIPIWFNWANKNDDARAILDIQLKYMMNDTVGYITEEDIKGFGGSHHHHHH

[11] = biological target: Marinobacter sp. msLacBP6 variant 187C, L70M, SEQ ID NO: 53, Badan conjugate; test: Fluorescence titration of conjugate (affinity tuning); format: binding; conditions: λ1 459, λ2 539 nm
[12] = biological target: Marinobacter sp. msLacBP6 variant 187C, P150S, SEQ ID NO: 55, Acrylodan conjugate; test: as above; format: binding; conditions: read-out: trueKd (lactate); monochromatic, 463 nm
[13] = biological target: Marinobacter sp. msLacBP6 variant 187C, P150A, SEQ ID NO: 54, Acrylodan conjugate; test: as above; format: binding; conditions: read-out: trueKd (lactate); monochromatic, 463 nm

T1 sequence (D1B6P5 entry or part of it W212C/C271A/C333A): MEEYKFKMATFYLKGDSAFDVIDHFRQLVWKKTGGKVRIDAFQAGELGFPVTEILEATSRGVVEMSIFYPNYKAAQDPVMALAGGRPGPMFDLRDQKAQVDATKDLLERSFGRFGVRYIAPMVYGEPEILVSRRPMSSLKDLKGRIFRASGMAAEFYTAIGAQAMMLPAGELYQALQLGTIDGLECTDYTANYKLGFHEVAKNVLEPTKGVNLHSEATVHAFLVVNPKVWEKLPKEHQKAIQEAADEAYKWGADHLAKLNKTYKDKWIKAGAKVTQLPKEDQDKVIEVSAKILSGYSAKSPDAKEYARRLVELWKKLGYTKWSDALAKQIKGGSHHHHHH

Structure (SMILES): C[C@H](O)C(=O)O [lactate]
- appKd (lactate) [1]: nb
- trueKd (lactate) [1]: nb
- appKd (lactate) [2]: nb
- trueKd (lactate) [2]: nb
- Kd [3]: 3100 µM
- Kd [4]: 20 µM
- Kd [5]: 1200 µM
- Kd ([6]; read-out: appKd (lactate), λ1 452, λ2 520 nm): 300 µM
- Kd ([6]; read-out: trueKd (lactate), λ1 452, λ2 520 nm): 300 µM
- Kd ([7]; read-out: appKd (lactate), λ1 452, λ2 550 nm): 400 µM
- Kd ([7]; read-out: trueKd (lactate), λ1 452, λ2 550 nm): 300 µM
- Kd ([8]; read-out: appKd (lactate)): 400 µM
- Kd ([8]; read-out: trueKd (lactate)): 400 µM
- Kd [9]: 400 µM
- Kd [10]: 1500 µM
- Kd ([11]; read-out: appKd (lactate)): 1100 µM
- Kd ([11]; read-out: trueKd (lactate)): 700 µM
- Kd [12]: 24000 µM
- Kd [13]: 6800 µM
